1 compound from EP1222163B1, “2'-SUBSTITUTED 1,1'-BIPHENYL-2-CARBONAMIDES, METHOD FOR THE PRODUCTION THEREOF, USE THEREOF AS A MEDICAMENT AND PHARMACEUTICAL PREPARATIONS CONTAINING SAID COMPOUNDS” (Sanofi-Aventis Deutschland GmbH, priority 1999, dated 2001) can be followed below.

For this assay, the target named is T1, Kv1.5-Kanäle aus dem Menschen (Homo sapiens, UniProt P22460).
T1 construct: expressed in transfected cells; host or cells: Xenopus laevis oocytes injected with in vitro synthesised Kv1.5-coding RNA
The assay is described as follows: Kv1.5 currents in Xenopus oocytes, two-microelectrode voltage clamp. It counts as cell-based.

T1 sequence (P22460 whole entry): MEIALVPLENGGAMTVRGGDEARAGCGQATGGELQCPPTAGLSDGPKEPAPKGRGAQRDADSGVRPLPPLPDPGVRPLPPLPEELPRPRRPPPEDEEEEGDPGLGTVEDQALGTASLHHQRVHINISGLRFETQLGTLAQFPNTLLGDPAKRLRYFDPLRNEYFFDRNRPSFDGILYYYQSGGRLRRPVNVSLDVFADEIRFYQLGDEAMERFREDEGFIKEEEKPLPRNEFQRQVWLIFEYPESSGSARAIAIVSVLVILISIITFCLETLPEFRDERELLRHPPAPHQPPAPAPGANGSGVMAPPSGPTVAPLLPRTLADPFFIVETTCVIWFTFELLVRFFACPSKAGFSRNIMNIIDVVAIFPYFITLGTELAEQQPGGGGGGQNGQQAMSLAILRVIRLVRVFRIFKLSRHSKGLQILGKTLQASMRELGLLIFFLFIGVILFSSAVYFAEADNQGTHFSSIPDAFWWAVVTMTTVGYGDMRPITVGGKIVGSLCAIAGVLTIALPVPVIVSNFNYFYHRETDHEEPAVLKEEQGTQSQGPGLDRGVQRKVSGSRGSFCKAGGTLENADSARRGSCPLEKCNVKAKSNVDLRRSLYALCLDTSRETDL
Description: Kv1.5-Kanäle aus dem Menschen wurden in Xenopus Oozyten expremiert. Hierfür wurden zuerst Oozyten aus Xenopus laevis isoliert und defollikuliert. Anschließend wurde in diese Oozyten in vitro synthetisierte Kv1.5 kodierende RNA injiziert. Nach 1 - 7 Tagen Kv1.5-Proteinexpression wurden an den Oozyten mit der Zwei-Mikroelektroden Voltage-Clamp Technik Kv1.5-Ströme gemessen. Die Kv1.5-Kanäle wurden hierbei in der Regel mit 500 ms dauernden Spannungssprüngen auf 0 mV und 40 mV aktiviert. Das Bad wurde mit einer Lösung der nachfolgenden Zusammensetzung durchspült: NaCl 96 mM, KCl 2 mM, CaCl2 1,8 mM, MgCl2 1 mM, HEPES 5 mM (titriert mit NaOH auf pH 7,4). Diese Experimente wurden bei Raumtemperatur durchgeführt. Zur Datenerhebung und Analyse wurden eingesetzt: Geneclamp Verstärker (Axon Instruments, Foster City, USA) und MacLab D/A-Umwandler und Software (ADInstruments, Castle Hill, Australia). Die erfindungsgemäßen Substanzen wurden getestet, indem sie in unterschiedlichen Konzentrationen der Badlösung zugefügt wurden. Die Effekte der Substanzen wurden als prozentuale Inhibition des Kv1.5-Kontrollstromes berechnet, der erhalten wurde, wenn der Lösung keine Substanz zugesetzt wurde. Die Daten wurden anschließend mit der Hill-Gleichung extrapoliert, um die Hemmkonzentrationen IC50 für die jeweiligen Substanzen zu bestimmen.

By IC50 is commonly meant the midpoint of a concentration-inhibition curve. The low end stands for higher potency, the high end for lower potency. On to `NC(=O)[C@H](Cc1ccccc1)NC(=O)c1ccccc1-c1ccccc1CNS(=O)(=O)c1cccc2cccnc12` [Beispiel 12 l], for which the IC50 was found to be 10.3 µM.
